{"source": "patent US6313090A", "about": "“Methods for treating parasitic infection using thiopeptides” (The United States of America as represented by the …, priority 2000, dated 2001)", "system": "rpoB/C mRNA encoded by the 35-kb plastid-like organelle genome", "format": "cell-based, P. falciparum", "method": "As of organelle and cyloplasmic transcript levels. RNA polymerase transcript levels were assessed by comparing the amounts of RNA synthesized at timepoints following drug treatment. Cultures of P. falciparum (3.2% parasitemia, 5% hematocrit) were treated with thiostrepton at 8 μM and rifampin (Sigma) at 80 μM; near the IC99 values (this study and ref. 22). Aliquots (5 ml) of treated and control cultures were removed and immediately processed for RNA with a guanidinium thiocyanate solution, according to the manufacturer's directions (RNAgents, Promega). All RNA samples were dissolved in 50 μl DEPC-treated water, DNase I treated as previously described (23) and an aliquot (1 μl) was removed for RT-PCR First strand synthesis of cDNA was completed with a random hexamer (Superscript Preamplification System, Life Technologies). One-tenth of the CDNA product was utilized for PCR of rpoB/C, MSA1, and rRNA. Primers corresponding to the 3' region of rpoB, 5'-GGGCTTTAGAAGCTTTTGG-3' (SEQ ID NO:1), and the 5' region of rpoC, 5'-[…]-3' (SEQ ID NO:2) were applied as described (2,3) for PCR of nascent rpoB/C transcripts. Reactions were cycled with the following parameters: 94° C./30 seconds, 42° C./30 seconds, 72° C./60 seconds, 35 cycles. Primers for amplification of nucleotide 64 to 614 of MSA1 with 5'-GTGTGATAATATTCATGG-3' (SEQ ID NO:3) and 5'-GGAGAGCATTTGGTG-3' (SEQ ID NO:4)(24) and the small subunit rRNA with oligonucleotides 841 and 844 (23) were used for amplification reactions following the parameters in the respective references except with 35 cycles. Samples were also analyzed after 25 cycles of amplification to ensure detection in the linear range of the amplification reaction, with similar results. Following electrophoresis of aliquots from the amplification reactions on 1% agarose:TBE gels, samples were transferred to nylon membranes (GeneScreen Plus, DuPont) and hybridized as described (25). The amplification products were probed with 5'-^32 P-labeled oligonucleotides. The rpoB/C products were probed with 5'-[…]-3' (SEQ ID NO:5) (nucleotide 2009-2030 of rpoB) and 5'-CGGAGAGGTATTAATACC-3' (SEQ ED NO:6) (nucleotide 108-125 of rpoC), in 5×SSC, 10 mM sodium phosphate, 0.05% sodium pyrophosphate, 1% sodium dodecyl sulfate, 5×Denhardt's solution, 100 μg/ml yeast tRNA, 42° C. and washed in the hybridization solution lacking Denhardt's and tRNA at 37° C., three times. The final wash was 1×SSC, 0.5% sodium dodecyl sulfate, 42° C. followed by autoradiography. The same results were obtained with either probe. The MSA1 amplification products were similarly probed with 5'-[…]-3' (SEQ ID NO:7) and the rRNA products with oligonucleotide 842 (23).\nThe target of inhibition by thiostrepton. […]", "data": [{"smiles": "C=C(NC(=O)C(=C)NC(=O)c1csc(C2=N[C@@H]3c4csc(n4)[C@H]4NC(=O)c5csc(n5)[C@H]([C@](C)(O)[C@@H](C)O)NC(=O)[C@H]5CSC(=N5)/C(=C/C)NC(=O)[C@H]([C@@H](C)O)NC(=O)c5csc(n5)[C@]3(CC2)NC(=O)[C@H](C)NC(=O)C(=C)NC(=O)[C@H](C)NC(=O)[C@H]([C@@H](C)CC)N[C@@H]2C=Cc3c([C@H](C)O)cc(nc3[C@H]2O)C(=O)O[C@@H]4C)n1)C(N)=O", "note": "[Thiostrepton, thiostrepton]", "values": [{"measurement": "decay of mRNA corresponding to rpoB/C, time of drug treatment", "setting": "thiostrepton at 8 μM, rifampin at 80 μM", "result": "≤ 6", "unit": "h"}, {"measurement": "decline of the rpoB/C product with time", "setting": "time course, 8 μM", "result": "notable affect after only one hour of treatment"}, {"measurement": "effect on levels of nuclear-encoded MSA mRNA and total rRNA", "setting": "within the duration of the experiment (8 hours), 8 μM", "result": "no effect"}]}]}
